According to US12691100B2, “NMT inhibitor treatment of a senescence-associated disease or disorder of the liver” (Imperial College Innovations Limited, priority 2020, dated 2026):

Columns and labels:
[1] = High fat diet model of nonalcoholic steatohepatitis (NASH); assay type: in vivo, male C57/BL6 mice; conditions: HFD mice, 10 mg/kg
Source text: For high-fat diet experiments C57BL/6J male mice aged 8-weeks old were placed on Chow or high-fat diet (kcal 40% fat (non-trans-fat Primex Shortening), kcal 20% fructose, 2% cholesterol, D1602230i) for 4 weeks prior to first round of injections. […] Blood was collected prior to each round of injection for physiological assessments. Mice were allowed to rest 4 weeks prior to being culled and organs collected for freezing in OCT, paraffin embedding, blood collection for physiological measurements and tissue snap-freezing for RNA extraction.
(§1) For analysis of immune cell composition in whole blood, tail-vein blood was collected 2 days after last treatment. Whole blood was diluted in saline to a volume of […] and ran on a Sysmex XE2100 automated cell counter. Blood glucose levels were determined by collecting whole-blood from tail vein into heparinised tubes (Abraxis), 120-140 μL of whole-blood to be loaded onto a comprehensive diagnostic profile reagent rotor (Abraxis) and run on a VetScan VS2 Chemistry Analyzer (Abraxis: 500-7123).
Immunohistochemical staining—Slides were deparaffinised by washing slides twice in Histoclear™ for 5 min each, followed by 5 min washes in decreasing concentrations of ethanol with 100%, 75%, 50% & 25% ethanol washes before a final wash 5 min in dH2O. Heat induced epitope retrieval (HIER) was then performed in pressure cooker for 20 min using either antigen-unmasking solution, Citrate-based at pH 6.0 (VectorLab H-3300-250) or antigen-unmasking solution, Tris-based at pH 9.0 (VectorLab H-3301-250) depending on antibody manufacturers' instructions. Following HIER, slides were cooled on ice for 10 min and then washed in PBS for 5 min. For intracellular stains, sections were permeabilized with 0.2% Triton X-100 in PBS for 10 min and washed twice in PBS for 5 min. For NRAS staining in liver slides were washed in 0.1% H2O2 in PBS for 15 min followed by washing twice in PBS to reduce endogenous peroxide activity. Sections were marked using hydrophobic pen and Non-specific antigen binding was blocked by incubating slides with CAS-Block™ Histochemical reagent (ThermoFisher, 008120) for 30-45 min in a humidified chamber. Slides were then incubated with primary antibody overnight in a humidified chamber at 4° C. For experiments utilising p21 antibody, slides were incubated with primary p21 antibody (p21 [EPR18021], Abcam, 1:200) overnight in a humidified chamber at 4° C. Slides were washed twice in PBS for 5 min and incubated with secondary antibody SignalStain® Boost IHC detection reagent Mouse/Rabbit, HRP (Cell Signalling Technology, 8125) for 30-45 min. Next, slides were washed twice in PBS for 5 min and incubated for 2-10 min with SignalStain® DAB substrate kit (CST, 8059) to detect HRP signal. Signal development was stopped when visible positive cells could be detected on a microscope, by washing slides in dH2O. To counterstain DAB signal, slides were incubated for 30 s in Modified Mayer's Hematoxylin (Lillie's Modification) (DAKO), washed in dH2O, and incubated for 30 s in 0.05% Ammonium solution (PBS) followed by washing in dH2O. Prior to mounting coverslips with VectaMount aqueous mounting media (VectorLab, H-5501-60) slides were dehydrated by washing 1 min in 75% Ethanol, 5 min in 100% Ethanol and 5 min in Histoclear®.
Oil Red O staining for lipids was carried out on liver tissue in OCT was snap-frozen in liquid N2 and cryosectioned (15 μM). Sections were equilibrated to RT for 10 min and then stained with 0.5% Oil Red O solution (w/v, in isopropanol, Sigma, O1391) for 5 min, rinsed in tap water and counterstained with Mayer's hematoxylin for 30 s. Then sections were again rinsed in tap water for 30 min and coverslips mounted. Images were acquired on Zeiss AxioScan Z.1 and ImageJ quantification of Oil-red stain area relative to background tissue area performed for 3 fields per section. […]

[2] = Blood markers (Vetscan) in a separate cohort of old mice; assay type: in vivo, female C57/BL6 mice; conditions: ~19 mo females, before 4th round, Compound 2 10 mg/kg, Compound 3 25 mg/kg, versus vehicle
Description: Blood was collected prior to each round of injection for physiological assessments. Mice were allowed to rest 4 weeks prior to being culled and organs collected for freezing in OCT, paraffin embedding and snap-freezing for RNA extraction.
as §1
Further experiments were performed on a separate cohort of old mice. […] This regimen was repeated 4 more times and blood was collected for Vetscan measurements prior to the 4th round of treatment (FIG. 19). At that stage, ~19 mo females presented elevated levels of ALT, amylase and glucose in blood when compared with young mice (FIG. 20A).

Cc1c(NS(=O)(=O)c2c(Cl)cc(-c3ccnc(N4CCNCC4)c3)cc2Cl)c(CC(C)C)nn1C [Compound 2]
Liver fibrosis (Sirius red staining) ([1]; FIG. 23): normalized | p21^CIP1-positive hepatocytes in the liver ([1]; FIG. 24A): reduction of p21^CIP1-positive hepatocytes | Lipid accumulation (steatosis) in liver ([1]; FIG. 24D): reduction in this lipid accumulation | Transcriptional signatures of collagen formation in liver ([1]; GSEA, FIG. 24E): downregulation | Transcriptional signature of Fridman senescence in liver ([1]; GSEA, FIGS. 24B-C): downregulation | Transcriptional signature of senescence-associated secretory phenotype in liver ([1]; GSEA, FIGS. 24B-C): downregulation | Col1a1 mRNA in liver ([1]; RT-qPCR, FIGS. 24F-G): lower | Col4a1 mRNA in liver ([1]; RT-qPCR, FIGS. 24F-G): lower | ALP in blood ([1]; before 3rd round, FIGS. 22B-D): normalised | ALT in blood ([1]; before 3rd round, FIGS. 22B-D): normalised | Albumin in blood ([1]; before 3rd round, FIGS. 22B-D): normalised | suPAR in blood ([1]; before 3rd round, versus vehicle, FIG. 22A): lower levels of suPAR | ALT in blood ([2]; FIG. 20A): lower level | Amylase in blood ([2]; FIG. 20B): lower level | Glucose in blood ([2]; FIG. 20C): lower level
